Test results as given in ChEMBL document CHEMBL1124228, “Synthesis of (aryloxy)alkylamines. 1. Novel antisecretory agents with H+K+-ATPase inhibitory activity” (J Med Chem, 1988).

Key:
[1] = target: T1, Potassium-transporting ATPase (Homo sapiens, UniProt P20648); assay: (§1) Antisecretory activity evaluated by the inhibition of 14C -AP uptake in isolated rabbit parietal cells stimulated by dibutyryl cyclic adenosine 3', 5' -monophosphate (dcAMP); assay type: functional, Oryctolagus cuniculus
Rattus norvegicus [2] = assay: Percent inhibition of total acid secretion in pylorus-ligated rats at an id dose of 20 mg/kg; assay type: functional; conditions: route intraduodenal
[3] = target: T1, Potassium-transporting ATPase; assay: Antisecretory activity evaluated by the inhibition of 14C -AP uptake in isolated rabbit parietal cells stimulated by exogenous histamine; assay type: functional, Oryctolagus cuniculus
Rattus norvegicus [4] = assay: Effective dose required for the inhibition of total acid secretion in pylorus-ligated rats at 20 mg/kg; assay type: functional
Rattus norvegicus [5] = assay: Percent inhibition of total acid secretion in pylorus-ligated rats at an id dose of 40 mg/kg; assay type: functional; conditions: route intraduodenal
Rattus norvegicus [6] = assay: Percent inhibition of total acid secretion in pylorus-ligated rats at an id dose of 10 mg/kg; assay type: functional; conditions: route intraduodenal
Rattus norvegicus [7] = organism: Rattus norvegicus; assay: Effective dose required for the inhibition of total acid secretion in pylorus-ligated rats; assay type: functional
[8] = target: T2, Potassium-transporting ATPase (Homo sapiens, UniProt P20648+P51164); assay: as §1; assay type: functional, Oryctolagus cuniculus; conditions: target entry is the homologue from another species
T2 sequence (P20648 whole entry): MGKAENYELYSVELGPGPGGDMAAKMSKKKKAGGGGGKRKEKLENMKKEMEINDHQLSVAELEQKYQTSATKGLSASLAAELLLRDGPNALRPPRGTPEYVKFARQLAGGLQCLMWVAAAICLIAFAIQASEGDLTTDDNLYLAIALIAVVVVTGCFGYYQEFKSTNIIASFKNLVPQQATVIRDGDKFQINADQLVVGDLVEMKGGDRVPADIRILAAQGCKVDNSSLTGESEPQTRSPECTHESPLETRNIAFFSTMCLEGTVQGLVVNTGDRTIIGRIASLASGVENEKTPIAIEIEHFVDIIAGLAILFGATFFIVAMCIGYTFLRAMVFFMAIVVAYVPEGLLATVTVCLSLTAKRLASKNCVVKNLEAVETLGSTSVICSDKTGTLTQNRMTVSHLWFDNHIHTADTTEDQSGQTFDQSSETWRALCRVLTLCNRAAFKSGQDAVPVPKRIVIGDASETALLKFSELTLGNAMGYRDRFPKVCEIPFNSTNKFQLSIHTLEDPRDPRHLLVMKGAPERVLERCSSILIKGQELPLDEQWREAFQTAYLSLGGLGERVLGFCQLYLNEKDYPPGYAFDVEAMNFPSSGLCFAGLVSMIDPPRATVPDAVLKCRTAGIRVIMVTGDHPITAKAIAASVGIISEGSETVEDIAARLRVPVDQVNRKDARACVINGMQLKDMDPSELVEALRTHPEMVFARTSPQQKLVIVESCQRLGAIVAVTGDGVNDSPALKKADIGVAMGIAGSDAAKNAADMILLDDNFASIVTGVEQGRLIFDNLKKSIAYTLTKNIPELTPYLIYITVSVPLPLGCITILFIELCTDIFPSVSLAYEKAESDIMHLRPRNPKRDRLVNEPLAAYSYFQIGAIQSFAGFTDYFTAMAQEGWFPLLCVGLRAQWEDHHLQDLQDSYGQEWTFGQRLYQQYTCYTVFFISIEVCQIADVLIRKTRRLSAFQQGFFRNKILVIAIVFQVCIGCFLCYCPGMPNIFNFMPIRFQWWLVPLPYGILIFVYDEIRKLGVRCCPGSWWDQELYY
T2 sequence (P51164 whole entry): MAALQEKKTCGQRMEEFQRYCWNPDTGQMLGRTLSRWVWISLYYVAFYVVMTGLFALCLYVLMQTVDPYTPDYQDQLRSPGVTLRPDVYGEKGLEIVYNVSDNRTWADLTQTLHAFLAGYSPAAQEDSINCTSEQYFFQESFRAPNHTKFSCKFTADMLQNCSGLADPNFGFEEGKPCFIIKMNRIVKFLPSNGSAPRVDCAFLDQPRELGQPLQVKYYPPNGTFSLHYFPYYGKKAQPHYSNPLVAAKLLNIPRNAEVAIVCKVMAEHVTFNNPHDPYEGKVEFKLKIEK

Rattus norvegicus [9] = assay: Effective dose required for the inhibition of total acid secretion in pylorus-ligated rats at 40 mg/kg; assay type: functional
[10] = target: T2, Potassium-transporting ATPase; assay: Evaluated for the inhibition of H+/K+ ATPase enzyme from fundic mucosa of white rabbits at 100 uM; assay type: protein-complex assay; conditions: Oryctolagus cuniculus, target entry is the homologue from another species
[11] = target entry is the homologue from another species

Row | Compound | IC50 [1, 11] | inhibition in vivo at 20 mg/kg (Rattus norvegicus [2]) | IC50 [3, 11] | also measured
1 | CCN(CC)CCCCOc1ccc(/C=C/c2nc3ccccc3o2)cc1 | 120 nM | 31% | 80 nM | 
2 | CCCCN(CCCC)CCCOc1ccc(/C=C/c2nc3cc(C)ccc3s2)cc1 | 530 nM | 14% | 290 nM | 
3 | CNC(=C[N+](=O)[O-])NCCSCc1ccc(CN(C)C)o1 [RANITIDINE] |  |  | 40 nM | ED50 (Rattus norvegicus [4]): 9.1 mg/kg
4 | CCN(CC)CCCCOc1ccc(/C=C/c2nc3ccccc3s2)cc1 | 350 nM | 52% | 180 nM | 
5 | CCCN(CCC)CCCOc1ccc(/C=C/c2nc3ccccc3o2)cc1 | 350 nM | 77% | 220 nM | 
6 | C(=C\c1nc2ccccc2o1)/c1ccc(OCCCCN2CCCCC2)cc1 | 330 nM | 42% | 170 nM | 
7 | CCCCN(CCCC)CCCOc1ccc(-c2csc(-c3ccc(C(F)(F)F)cc3)n2)cc1 | 2000 nM |  | 2900 nM | inhibition in vivo at 40 mg/kg (Rattus norvegicus [5]): 40%
8 | CCCCN(CCCC)CCCOc1ccc(/C=C/c2nc3ccc(OC)cc3s2)cc1 | 460 nM | 31% | 260 nM | 
9 | C(=C\c1nc2ccccc2s1)/c1ccc(OCCCn2ccnc2)cc1 | 340 nM | 22% | 130 nM | 
10 | C(=C\c1nc2ccccc2o1)/c1ccc(OCCCCN2CCCC2)cc1 | 240 nM |  | 170 nM | inhibition in vivo at 40 mg/kg (Rattus norvegicus [5]): 24%
11 | CCCCN(CCCC)CCCCCOc1ccc(-c2csc(-c3ccccc3)n2)cc1 | 860 nM | 54% | 490 nM | 
12 | CCCCN(CCCC)CCOc1ccc(-c2csc(-c3ccccc3)n2)cc1 | 350 nM | 41% | 310 nM | 
13 | COc1ccc2[nH]c([S+]([O-])Cc3ncc(C)c(OC)c3C)nc2c1 (stereo not given) [OMEPRAZOLE] |  |  |  | ED50 (Rattus norvegicus [4]): 7.1 mg/kg
14 | C(=C\c1nc2ccccc2s1)/c1ccc(OCCCN2CCCCC2)cc1 | 210 nM | 32% | 180 nM | 
15 | C(=C\c1nc2ccccc2s1)/c1ccc(OCCCCn2ccnc2)cc1 | 260 nM |  | 200 nM | inhibition in vivo at 40 mg/kg (Rattus norvegicus [5]): 17%
16 | CCCCN(CCCC)CCCOc1ccc(-c2csc(-c3cc(OC)cc(OC)c3)n2)cc1 | 540 nM | 17% | 260 nM | 
17 | c1ccc(-c2nc(-c3ccc(OCCCn4ccnn4)cc3)cs2)cc1 |  |  | 10000 nM | inhibition in vivo at 10 mg/kg (Rattus norvegicus [6]): 72%
18 | CCCN(CCC)CCCCOc1ccc(/C=C/c2nc3ccccc3s2)cc1.Cl.O | 120 nM |  | 30 nM | inhibition in vivo at 40 mg/kg (Rattus norvegicus [5]): 93%; ED50 (Rattus norvegicus [7]): 13.6 mg/kg
19 | CCCCN(CCCC)CCCCOc1ccc(-c2csc(-c3ccccc3)n2)cc1 | 120 nM | 56% | 130 nM | 

Row | Compound | IC50 [1, 11] | inhibition in vivo at 20 mg/kg (Rattus norvegicus [2]) | IC50 [3, 11] | also measured
20 | CCCCN(CCCC)CCCOc1ccc(-c2nc3ccccc3[nH]2)cc1 | 1200 nM |  | 1800 nM | inhibition in vivo at 40 mg/kg (Rattus norvegicus [5]): 24%
21 | c1ccc(-c2nc(-c3ccc(OCCCCn4ccnc4)cc3)cs2)cc1 | 310 nM |  | 820 nM | inhibition in vivo at 40 mg/kg (Rattus norvegicus [5]): 31%
22 | CCCCN(CCCC)CCCOc1ccc(-c2csc(-c3ccc(C)cc3)n2)cc1 | 3000 nM | 41% | 1500 nM | 
23 | c1cncc(-c2nc(-c3ccc(OCCCn4ccnc4)cc3)cs2)c1 | 3000 nM | 53% | 3300 nM | 
24 | CCCCN(CCCC)CCCOc1ccc(/C=C/c2nc3ccc(OC)cc3o2)cc1 | 50 nM |  | 80 nM | inhibition in vivo at 40 mg/kg (Rattus norvegicus [5]): 64%
25 | CCN(CC)CCCOc1ccc(-c2csc(-c3ccccc3)n2)cc1 | 90 nM |  | 120 nM | inhibition in vivo at 40 mg/kg (Rattus norvegicus [5]): 82%
26 | CCN(CC)CCCOc1ccc(/C=C/c2nc3ccccc3s2)cc1 | 150 nM |  | 370 nM | inhibition in vivo at 40 mg/kg (Rattus norvegicus [5]): 71%
27 | CCCCN(CCCC)CCCOc1ccc(/C=C/c2nc3cc(C)ccc3o2)cc1 | 340 nM |  | 260 nM | inhibition in vivo at 40 mg/kg (Rattus norvegicus [5]): 88%
28 | CCCCN(CCCC)CCCOc1ccc(/C=C/c2nc3cc(Cl)ccc3s2)cc1 | 500 nM | 26% | 400 nM | 
29 | C(=C\c1nc2ccccc2o1)/c1ccc(OCCCn2ccnc2)cc1 | 250 nM |  | 290 nM | inhibition in vivo at 20 mg/kg (Rattus norvegicus [4]): 26%
30 | C(=C\c1nc2ccccc2o1)/c1ccc(OCCCCCn2ccnc2)cc1 | 230 nM | 45% | 280 nM | 
31 | CCCCN(CCCC)CCCOc1ccc(-c2nc3ccccc3s2)cc1 | 2600 nM |  | 250 nM | 
32 | CCCN(CCC)CCCOc1ccc(-c2csc(-c3ccccc3)n2)cc1 | 180 nM |  | 230 nM | inhibition in vivo at 40 mg/kg (Rattus norvegicus [5]): 94%
33 | CCCCN(CCCC)CCOc1ccc(/C=C/c2nc3ccccc3s2)cc1 | 600 nM |  | 430 nM | inhibition in vivo at 20 mg/kg (Rattus norvegicus [4]): 14%
34 | C(=C\c1nc2ccccc2o1)/c1ccc(OCCCCn2ccnc2)cc1 | 330 nM | 14% | 270 nM | 
35 | Cl.O.c1ccc(-c2nc(-c3ccc(OCCCn4ccnc4)cc3)cs2)cc1 | 20 nM |  | 80 nM | ED50 (Rattus norvegicus [4]): 5.1 mg/kg; inhibition in vivo at 20 mg/kg (Rattus norvegicus [4]): 91%
36 | CCCCN(CCCC)CCCOc1ccc(-c2nc(-c3ccccc3)sc2CC)cc1 | 240 nM |  | 340 nM | 
37 | CN/C(=N\CCSCc1nc[nH]c1C)NC#N [CIMETIDINE] |  |  |  | ED50 (Rattus norvegicus [7]): 32 mg/kg; IC50 [1]: > 100000 nM; IC50 [3]: 820 nM
38 | CCCCN(CCCC)CCCOc1ccc(/C=C/c2nc3ccccc3[nH]2)cc1 | 1500 nM | 2.8% | 2300 nM | 

Row | Compound | IC50 [1, 11] | inhibition in vivo at 20 mg/kg (Rattus norvegicus [2]) | IC50 [3, 11] | also measured
39 | CCCCN(CCCC)CCCOc1ccc(-c2csc(-c3ccc(OC)cc3)n2)cc1 | 230 nM | 4% | 480 nM | 
40 | CCCCN(CCCC)CCCOc1ccc(/C=C/c2nc3ccccc3s2)cc1 | 260 nM | 40% | 250 nM | 
41 | c1ccc(-c2nc(-c3ccc(OCCCN4CCCC4)cc3)cs2)cc1 |  | 36% | 390 nM | IC50 [8]: < 10000 nM
42 | CCCN(CCC)CCCCOc1ccc(/C=C/c2nc3ccccc3o2)cc1.Cl | 110 nM | 90% | 390 nM | ED50 (Rattus norvegicus [7]): 11.5 mg/kg
43 | CCCN(CCC)CCCOc1ccc(/C=C/c2nc3ccccc3s2)cc1 | 140 nM |  | 210 nM | inhibition in vivo at 20 mg/kg (Rattus norvegicus [4]): 42%
44 | CCCCN(CCCC)CCOc1ccc(/C=C/c2nc3ccccc3o2)cc1 | 540 nM | 43% | 260 nM | 
45 | CCCCN(CCCC)CCCOc1ccc(-c2csc(C)n2)cc1 | 8400 nM | 8% | 1500 nM | 
46 | CCCN(CCC)CCCOc1ccc(-c2nc3ccccc3s2)cc1 | 140 nM |  | 210 nM | inhibition in vivo at 40 mg/kg (Rattus norvegicus [9]): 42%
47 | C(=C\c1nc2ccccc2s1)/c1ccc(OCCCCN2CCCC2)cc1 | 260 nM | 20% | 160 nM | 
48 | FC(F)(F)c1ccc(-c2nc(-c3ccc(OCCCn4ccnc4)cc3)cs2)cc1 | 620 nM | 27% | 370 nM | 
49 | CCCCN(CCCC)CCCOc1ccc(-c2nc(-c3ccccc3)sc2C)cc1 | 230 nM |  | 270 nM | inhibition [10]: 65%; inhibition in vivo at 20 mg/kg (Rattus norvegicus [4]): 36%
50 | c1ccc(-c2nc(-c3ccc(OCCCN4CCCCC4)cc3)cs2)cc1 | 50 nM | 46% | 110 nM | 
51 | CCCCN(CCCC)CCCOc1ccc(-c2csc(-c3ccccc3)n2)cc1.Cl | 420 nM |  | 450 nM | ED50 (Rattus norvegicus [4]): 17 mg/kg; inhibition in vivo at 20 mg/kg (Rattus norvegicus [4]): 75%
52 | CCN(CC)CCCOc1ccc(/C=C/c2nc3ccccc3o2)cc1 | 980 nM |  | 320 nM | inhibition in vivo at 40 mg/kg (Rattus norvegicus [5]): 54%
53 | CCCCN(CCCC)CCCCOc1ccc(/C=C/c2nc3ccccc3o2)cc1 |  |  | 180 nM | inhibition in vivo at 40 mg/kg (Rattus norvegicus [5]): 14%; IC50 [8]: < 10000 nM
54 | CCCCN(CCCC)CCCOc1ccc(-c2csc(-c3ccc(Cl)cc3)n2)cc1 | 1800 nM | 40% | 2100 nM | 
55 | CCCCN(CCCC)CCCOc1ccc(-c2csc(-c3cccnc3)n2)cc1 | 880 nM | 19% | 1650 nM | 
56 | CCCCN(CCCC)CCCOc1ccc(/C=C/c2nc3ccccc3o2)cc1 | 150 nM |  | 150 nM | inhibition in vivo at 40 mg/kg (Rattus norvegicus [5]): 96%
57 | CCCCN(CCCC)CCCOc1ccc(/C=C/c2nc3ccccc3n2C)cc1 | 2600 nM | 1.6% | 800 nM | 
